21 compounds from patent US8394789B2, “(Dihydro)pyrrolo[2,1-α]isoquinolines” (MSD Oss B.V., priority 2008, dated 2013) can be followed below.

Structures are written as SMILES.

The target of the experiment is T1, human FSH receptor (Homo sapiens, UniProt P23945).
T1 construct: expressed in transfected cells
T1 sequence (P23945 18-695): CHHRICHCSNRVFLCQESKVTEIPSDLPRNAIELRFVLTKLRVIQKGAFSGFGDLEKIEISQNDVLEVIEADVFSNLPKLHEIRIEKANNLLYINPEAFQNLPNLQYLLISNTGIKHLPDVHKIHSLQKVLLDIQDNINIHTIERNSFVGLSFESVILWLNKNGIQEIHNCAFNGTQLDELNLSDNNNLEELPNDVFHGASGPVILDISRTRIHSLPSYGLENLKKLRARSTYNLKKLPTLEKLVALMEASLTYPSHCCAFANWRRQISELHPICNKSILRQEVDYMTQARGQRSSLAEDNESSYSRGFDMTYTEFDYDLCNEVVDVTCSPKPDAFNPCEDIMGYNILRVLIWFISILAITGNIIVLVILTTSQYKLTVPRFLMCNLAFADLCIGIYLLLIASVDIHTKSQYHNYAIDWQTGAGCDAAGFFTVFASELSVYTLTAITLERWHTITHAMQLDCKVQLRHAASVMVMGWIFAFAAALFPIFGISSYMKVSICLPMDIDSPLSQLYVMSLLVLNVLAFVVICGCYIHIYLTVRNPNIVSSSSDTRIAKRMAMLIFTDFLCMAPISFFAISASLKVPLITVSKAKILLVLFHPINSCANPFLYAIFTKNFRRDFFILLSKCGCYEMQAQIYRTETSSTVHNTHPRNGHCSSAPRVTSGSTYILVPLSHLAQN
Nature of the experiment: hFSHRago (CHO luc): agonistic activity at the human FSH receptor expressed in CHO cells, CRE-luciferase reporter. To be noted: CHO cells stably transfected with human FSH receptor and CRE/luciferase reporter; 4 hours of incubation. The format is cell-based. (In general: In a reporter assay the amount or activity of a reporter protein is the signal.)
`COc1cc2c(cc1N1CCOCC1)-c1c(-c3cccnc3)cc(C(=O)N(C)C(C)(C)C)n1CC2` [Example 57, 8-Methoxy-9-morpholin-4-yl-1-pyridin-3-yl-5,6-dihydro-pyrrolo[2,1-α]isoquinoline-3-carboxylic acid tert-butyl-methyl-amide; trifluoro acetic acid]: the half-maximal effective concentration (EC50) is 276 nM.

For `COc1cc2c(cc1C=C(C)C)-c1c(-c3cccs3)cc(C(=O)N(C)C(C)(C)C)n1CC2` [Example 58b, 8-Methoxy-9-(2-methyl-propenyl)-1-thiophen-2-yl-5,6-dihydro-pyrrolo[2,1-α]isoquinoline-3-carboxylic acid tert-butyl-methyl-amide], a half-maximal response (EC50) required 0.7 nM.

As to `COc1cc2c(cc1CC(C)C)-c1c(-c3cccs3)cc(C(=O)N(C)C(C)(C)C)n1CC2` [Example 58c, 9-Isobutyl-8-methoxy-1-thiophen-2-yl-5,6-dihydro-pyrrolo[2,1-α]isoquinoline-3-carboxylic acid tert-butyl-methyl-amide], the midpoint of the response, the EC50, lay at 4.3 nM.

On to `COc1cc2c(cc1C=C(C)C)-c1c(-c3nccs3)cc(C(=O)N(C)C(C)(C)C)n1CC2` [Example 59, 8-Methoxy-9-(2-methyl-propenyl)-1-thiazol-2-yl-5,6-dihydro-pyrrolo[2,1-α]isoquinoline-3-carboxylic acid tert-butyl-methyl-amide], for which the EC50 came to 2.6 nM.

For the compound `COc1cc2c(cc1CC(C)C)-c1c(-c3nccs3)cc(C(=O)N(C)C(C)(C)C)n1CC2` [Example 60, 9-Isobutyl-8-methoxy-1-thiazol-2-yl-5,6-dihydro-pyrrolo[2,1-α]isoquinoline-3-carboxylic acid tert-butyl-methyl-amide], the EC50 stood at 19 nM.

In the case of `CC(C)Cc1cc2c(cc1O)CCn1c(C(=O)N(C)C(C)(C)C)cc(-c3cccs3)c1-2` [Example 61, 8-Hydroxy-9-isobutyl-1-thiophen-2-yl-5,6-dihydro-pyrrolo[2,1-α]isoquinoline-3-carboxylic acid tert-butyl-methyl-amide], the response was half-maximal at 5.2 nM (EC50).

The compound `COc1cc2c(cc1NC(=O)C(C)C)-c1c(-c3cccs3)cc(C(=O)N3CCCC3(C)C)n1CC2` [Example 62, N-[3-(2,2-Dimethyl-pyrrolidine-1-carbonyl)-8-methoxy-1-thiophen-2-yl-5,6-dihydro-pyrrolo[2,1-α]isoquinolin-9-yl]-isobutyramide] had an EC50 of 3.7 nM.

On to `CCOC(=O)COc1cc2c(cc1OC)CCn1c(C(=O)N(C)C(C)(C)C)cc(-c3cccs3)c1-2` [Example 63, [3-(tert-Butyl-methyl-carbamoyl)-8-methoxy-1-thiophen-2-yl-5,6-dihydro-pyrrolo[2,1-α]isoquinolin-9-yloxy]-acetic acid ethyl ester], for which the EC50 is 252 nM.

`CNC(=O)COc1cc2c(cc1OC)CCn1c(C(=O)N(C)C(C)(C)C)cc(-c3cccs3)c1-2` [Example 64, 8-Methoxy-9-methylcarbamoylmethoxy-1-thiophen-2-yl-5,6-dihydro-pyrrolo[2,1-α]isoquinoline-3-carboxylic acid tert-butyl-methyl-amide] yielded an EC50 of 3.1 nM.

As to `COc1cc2c(cc1OCCOC1CCCCO1)-c1c(-c3cccs3)cc(C(=O)N(C)C(C)(C)C)n1CC2` (stereo not drawn) [Example 65c, 8-Methoxy-9-[2-(tetrahydro-pyran-2-yloxy)-ethoxy]-1-thiophen-2-yl-5,6-dihydro-pyrrolo[2,1-α]isoquinoline-3-carboxylic acid tert-butyl-methyl-amide], it took 102 nM to reach a half-maximal effect (EC50).

For the compound `COc1cc2c(cc1OCCO)-c1c(-c3cccs3)cc(C(=O)N(C)C(C)(C)C)n1CC2` [Example 65d, 9-(2-Hydroxy-ethoxy)-8-methoxy-1-thiophen-2-yl-5,6-dihydro-pyrrolo[2,1-α]iso-quinoline-3-carboxylic acid tert-butyl-methyl-amide], the EC50 came to 1.3 nM.

`COc1cc2c(cc1OCCOS(C)(=O)=O)-c1c(-c3cccs3)cc(C(=O)N(C)C(C)(C)C)n1CC2` [Example 65e, Methanesulfonic acid 2-[3-(tert-butyl-methyl-carbamoyl)-8-methoxy-1-thiophen-2-yl-5,6-dihydro-pyrrolo[2,1-α]isoquinolin-9-yloxy]-ethyl ester]: the midpoint of the response, the EC50, lay at 15 nM.

For `COc1cc2c(cc1OCCN=[N+]=[N-])-c1c(-c3cccs3)cc(C(=O)N(C)C(C)(C)C)n1CC2` [Example 65f, 9-(2-Azido-ethoxy)-8-methoxy-1-thiophen-2-yl-5,6-dihydro-pyrrolo[2,1-α]isoquinoline-3-carboxylic acid tert-butyl-methyl-amide], the midpoint of the response, the EC50, lay at 7.1 nM.

The compound `COC(=O)NCCOc1cc2c(cc1OC)CCn1c(C(=O)N(C)C(C)(C)C)cc(-c3cccs3)c1-2` [Example 66, {2-[3-(tert-Butyl-methyl-carbamoyl)-8-methoxy-1-thiophen-2-yl-5,6-dihydro-pyrrolo[2,1-α]isoquinolin-9-yloxy]-ethyl}-carbamic acid methyl ester] yielded an EC50 of 31.3 nM.

For `COc1cc2c(cc1OCCNC(C)=O)-c1c(-c3cccs3)cc(C(=O)N(C)C(C)(C)C)n1CC2` [Example 67, 9-(2-Acetylamino-ethoxy)-8-methoxy-1-thiophen-2-yl-5,6-dihydro-pyrrolo[2,1-α]isoquinoline-3-carboxylic acid tert-butyl-methyl-amide], the EC50 was 36.5 nM.

`COc1cc2c(cc1OCCNS(C)(=O)=O)-c1c(-c3cccs3)cc(C(=O)N(C)C(C)(C)C)n1CC2` [Example 68, 9-(2-Methanesulfonylamino-ethoxy)-8-methoxy-1-thiophen-2-yl-5,6-dihydro-pyrrolo[2,1-α]isoquinoline-3-carboxylic acid tert-butyl-methyl-amide] showed an EC50 of 16 nM.

For the compound `COc1cc2c(cc1OC1CCCCO1)-c1c(-c3cccs3)cc(C(=O)N(C)C(C)(C)C)n1CC2` (stereo not drawn) [Example 69, 8-Methoxy-9-(tetrahydro-pyran-2-yloxy)-1-thiophen-2-yl-5,6-dihydro-pyrrolo[2,1-α]isoquinoline-3-carboxylic acid tert-butyl-methyl-amide], it took 6.9 nM to reach a half-maximal effect (EC50).

`COc1cc2c(cc1OCCCOC1CCCCO1)-c1c(-c3cccs3)cc(C(=O)N(C)C(C)(C)C)n1CC2` (stereo not drawn) [Example 70c, 8-Methoxy-9-[3-(tetrahydro-pyran-2-yloxy)-propoxy]-1-thiophen-2-yl-5,6-dihydro-pyrrolo[2,1-α]isoquinoline-3-carboxylic acid tert-butyl-methyl-amide] had an EC50 of 155 nM.

`COc1cc2c(cc1OCCCO)-c1c(-c3cccs3)cc(C(=O)N(C)C(C)(C)C)n1CC2` [Example 70d, 9-(3-Hydroxy-propoxy)-8-methoxy-1-thiophen-2-yl-5,6-dihydro-pyrrolo[2,1-α]iso-quinoline-3-carboxylic acid tert-butyl-methyl-amide] came in with an EC50 of 1.3 nM.

In turn, `COc1cc2c(cc1OCCCN=[N+]=[N-])-c1c(-c3cccs3)cc(C(=O)N(C)C(C)(C)C)n1CC2` [Example 70f, 9-(3-Azido-propoxy)-8-methoxy-1-thiophen-2-yl-5,6-dihydro-pyrrolo[2,1-α]isoquinoline-3-carboxylic acid tert-butyl-methyl-amide] showed an EC50 of 10.9 nM.

`COc1cc2c(cc1OCCCN)-c1c(-c3cccs3)cc(C(=O)N(C)C(C)(C)C)n1CC2` [Example 70g, 9-(3-Amino-propoxy)-8-methoxy-1-thiophen-2-yl-5,6-dihydro-pyrrolo[2,1-α]iso-quinoline-3-carboxylic acid tert-butyl-methyl-amide] gave an EC50 of 111 nM.

Usually EC50 stands for the concentration that produces a half-maximal response. High values mean a need for much substance, low ones an effect from little substance.
